Laboratory results: patent US12215215B2, “Stabilizer compositions and methods for using same for protecting polymeric organic materials from UV light and thermal degradation” (Cytec Industries Inc., priority 2014, dated 2025)

Experiment: Solubility of triazine UV absorbers in cyclohexane at room temperature
Format: physicochemical
Conditions: room temperature (20° C.)
Source text: UV stabilizers and co-additives. […] Solubility measurements of various orthohydroxyphenyl triazines in cyclohexane (substitute for polypropylene) conducted at room temperature indicate that such triazines having a solubility greater than 0.04 wt. % can be used in certain embodiments as the UV absorber of the stabilizer compositions described herein.

Row | Structure (SMILES) | Solubility of triazines in Cyclohexane at room temperature
1 | CCCCCCCCOc1ccc(-c2nc(-c3ccc(OCCCCCCCC)cc3O)nc(-c3ccc(OCCCCCCCC)cc3O)n2)c(O)c1 [Formulation P-800, 2,4,6-tris(2-hydroxy-4-octyloxy-phenyl)-1,3,5-triazine] | >0.04% weight %
2 | CCCCCCCCOc1ccc(-c2nc(-c3ccc(C)cc3C)nc(-c3ccc(C)cc3C)n2)c(O)c1 [UV-1164, 2-[4,6-bis(2,4-dimethylphenyl)-1,3,5-triazin-2-yl]-5-(octyloxy) phenol] | 1.4 ± 0.2 weight %
